Test results as given in ChEMBL document CHEMBL3576815, “Tankyrase 1 Inhibitors with Drug-like Properties Identified by Screening a DNA-Encoded Chemical Library” (J Med Chem, 2015).

What was measured:
[1] = target: Poly [ADP-ribose] polymerase 1 (Homo sapiens, UniProt P09874); experiment: Inhibition of full length PARP1 (unknown origin) expressed in Escherichia coli BL21 (DE3) assessed as reduction in ADP-ribosyl transferase activity using NAD+ by chemiluminescence detection based assay
[2] = target: T1, Poly [ADP-ribose] polymerase tankyrase-1 (Homo sapiens, UniProt O95271); experiment: Inhibition of hexa-histidine tagged recombinant tankyrase 1 biotinylated catalytic domain (amino acids 1106 to 1325) (unknown origin) expressed in Escherichia coli BL21 (DE3) assessed as reduction in ADP-ribosyl transferase activity using NAD+ by chemiluminescence detection based assay
T1 sequence (O95271 whole entry): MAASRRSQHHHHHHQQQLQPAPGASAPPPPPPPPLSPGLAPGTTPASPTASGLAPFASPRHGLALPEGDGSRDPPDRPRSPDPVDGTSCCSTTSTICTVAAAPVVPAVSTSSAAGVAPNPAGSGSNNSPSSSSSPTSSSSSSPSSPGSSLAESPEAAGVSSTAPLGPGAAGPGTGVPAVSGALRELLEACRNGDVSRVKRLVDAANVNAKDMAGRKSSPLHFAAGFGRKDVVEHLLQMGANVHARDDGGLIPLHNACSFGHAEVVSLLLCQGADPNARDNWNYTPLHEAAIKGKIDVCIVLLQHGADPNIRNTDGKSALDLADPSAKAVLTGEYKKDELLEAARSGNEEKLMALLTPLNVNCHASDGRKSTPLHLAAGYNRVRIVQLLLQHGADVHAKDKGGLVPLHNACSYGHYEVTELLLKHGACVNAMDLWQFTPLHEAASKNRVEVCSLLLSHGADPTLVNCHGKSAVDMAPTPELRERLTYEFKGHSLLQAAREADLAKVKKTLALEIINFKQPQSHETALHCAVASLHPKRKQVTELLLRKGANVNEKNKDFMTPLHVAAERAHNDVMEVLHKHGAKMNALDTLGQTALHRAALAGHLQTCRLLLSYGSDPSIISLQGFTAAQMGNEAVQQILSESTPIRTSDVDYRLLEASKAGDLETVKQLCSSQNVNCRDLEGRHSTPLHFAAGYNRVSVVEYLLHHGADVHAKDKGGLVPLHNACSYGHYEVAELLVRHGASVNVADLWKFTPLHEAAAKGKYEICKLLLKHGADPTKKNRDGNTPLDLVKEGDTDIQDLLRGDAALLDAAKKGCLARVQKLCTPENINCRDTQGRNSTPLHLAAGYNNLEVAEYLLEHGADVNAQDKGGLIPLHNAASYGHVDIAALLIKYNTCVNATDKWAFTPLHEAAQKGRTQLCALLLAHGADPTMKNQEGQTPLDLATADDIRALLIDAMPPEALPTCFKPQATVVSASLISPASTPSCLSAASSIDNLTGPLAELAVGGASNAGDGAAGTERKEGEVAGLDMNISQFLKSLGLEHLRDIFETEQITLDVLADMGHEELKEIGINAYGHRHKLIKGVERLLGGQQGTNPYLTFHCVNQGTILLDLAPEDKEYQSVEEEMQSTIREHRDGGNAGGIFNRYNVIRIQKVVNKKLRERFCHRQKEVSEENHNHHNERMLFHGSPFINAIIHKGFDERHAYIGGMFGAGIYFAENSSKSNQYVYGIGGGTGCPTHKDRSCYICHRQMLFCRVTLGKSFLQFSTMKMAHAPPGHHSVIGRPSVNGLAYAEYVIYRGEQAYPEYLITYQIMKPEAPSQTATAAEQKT

[3] = target: T2, Poly [ADP-ribose] polymerase tankyrase-2 (Homo sapiens, UniProt Q9H2K2); experiment: Inhibition of tankyrase 2 catalytic domain (unknown origin) expressed in Escherichia coli BL21 (DE3) assessed as reduction in ADP-ribosyl transferase activity using NAD+ by chemiluminescence detection based assay
T2 sequence (Q9H2K2 whole entry): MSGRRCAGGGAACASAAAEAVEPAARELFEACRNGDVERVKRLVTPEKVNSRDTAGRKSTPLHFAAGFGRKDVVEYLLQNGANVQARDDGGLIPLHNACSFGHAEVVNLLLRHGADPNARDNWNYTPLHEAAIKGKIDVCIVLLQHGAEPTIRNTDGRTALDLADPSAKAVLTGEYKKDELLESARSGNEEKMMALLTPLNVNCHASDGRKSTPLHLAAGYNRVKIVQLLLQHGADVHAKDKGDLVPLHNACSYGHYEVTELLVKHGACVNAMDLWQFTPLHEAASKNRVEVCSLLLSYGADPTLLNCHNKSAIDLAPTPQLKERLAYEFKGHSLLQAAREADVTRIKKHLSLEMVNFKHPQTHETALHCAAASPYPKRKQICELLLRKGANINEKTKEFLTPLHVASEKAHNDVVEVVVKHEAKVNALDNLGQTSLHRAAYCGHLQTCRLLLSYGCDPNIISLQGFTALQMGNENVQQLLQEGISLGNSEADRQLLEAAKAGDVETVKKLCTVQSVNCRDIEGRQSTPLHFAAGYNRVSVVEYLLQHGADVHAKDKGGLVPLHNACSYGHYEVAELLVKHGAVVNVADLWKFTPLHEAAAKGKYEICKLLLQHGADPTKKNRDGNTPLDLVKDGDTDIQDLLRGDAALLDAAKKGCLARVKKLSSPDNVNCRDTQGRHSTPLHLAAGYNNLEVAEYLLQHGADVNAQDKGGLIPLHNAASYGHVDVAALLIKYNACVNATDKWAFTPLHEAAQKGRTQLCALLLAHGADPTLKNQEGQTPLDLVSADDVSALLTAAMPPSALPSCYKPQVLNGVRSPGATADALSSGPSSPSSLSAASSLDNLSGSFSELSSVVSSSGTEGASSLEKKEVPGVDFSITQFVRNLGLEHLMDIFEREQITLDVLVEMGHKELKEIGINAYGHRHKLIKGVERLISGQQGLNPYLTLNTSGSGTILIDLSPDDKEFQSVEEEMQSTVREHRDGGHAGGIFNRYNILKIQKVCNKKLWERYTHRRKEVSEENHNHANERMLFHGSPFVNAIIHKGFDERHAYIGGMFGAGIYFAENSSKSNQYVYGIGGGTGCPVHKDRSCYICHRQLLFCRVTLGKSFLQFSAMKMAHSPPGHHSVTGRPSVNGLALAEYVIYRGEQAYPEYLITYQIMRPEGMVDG

[4] = target: T3, Protein mono-ADP-ribosyltransferase PARP10 (Homo sapiens, UniProt Q53GL7); experiment: Inhibition of full length PARP10 (unknown origin) expressed in Escherichia coli BL21 (DE3) assessed as reduction in ADP-ribosyl transferase activity using NAD+ by chemiluminescence detection based assay
T3 sequence (Q53GL7 whole entry): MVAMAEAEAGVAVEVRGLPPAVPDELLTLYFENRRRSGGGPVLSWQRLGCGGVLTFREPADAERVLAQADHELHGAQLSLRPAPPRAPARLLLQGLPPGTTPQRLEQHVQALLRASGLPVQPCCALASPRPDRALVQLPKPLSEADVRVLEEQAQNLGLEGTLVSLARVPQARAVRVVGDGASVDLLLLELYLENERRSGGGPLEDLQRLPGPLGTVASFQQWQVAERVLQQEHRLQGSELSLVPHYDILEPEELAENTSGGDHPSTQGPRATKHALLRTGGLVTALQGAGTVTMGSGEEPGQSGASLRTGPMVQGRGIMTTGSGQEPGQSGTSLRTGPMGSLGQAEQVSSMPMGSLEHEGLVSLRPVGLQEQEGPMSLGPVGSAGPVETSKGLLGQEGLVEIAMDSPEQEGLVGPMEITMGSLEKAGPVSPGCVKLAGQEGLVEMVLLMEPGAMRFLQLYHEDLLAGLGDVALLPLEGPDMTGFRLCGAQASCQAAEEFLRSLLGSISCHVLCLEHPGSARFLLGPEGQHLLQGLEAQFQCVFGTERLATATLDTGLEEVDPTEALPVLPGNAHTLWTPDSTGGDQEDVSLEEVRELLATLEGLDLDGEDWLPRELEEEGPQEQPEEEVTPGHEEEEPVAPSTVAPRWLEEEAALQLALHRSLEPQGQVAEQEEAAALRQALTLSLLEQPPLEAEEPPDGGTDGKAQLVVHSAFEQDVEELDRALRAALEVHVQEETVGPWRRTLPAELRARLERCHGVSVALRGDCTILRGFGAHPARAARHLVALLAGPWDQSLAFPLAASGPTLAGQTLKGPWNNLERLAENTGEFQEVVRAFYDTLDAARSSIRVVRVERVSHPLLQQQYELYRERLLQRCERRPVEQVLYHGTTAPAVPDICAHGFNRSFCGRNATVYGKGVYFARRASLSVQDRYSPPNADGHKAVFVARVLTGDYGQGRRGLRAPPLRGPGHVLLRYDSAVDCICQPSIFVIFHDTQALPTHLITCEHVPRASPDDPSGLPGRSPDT

Sequence of Poly [ADP-ribose] polymerase 1 (P09874 whole entry, the tested form may be a part): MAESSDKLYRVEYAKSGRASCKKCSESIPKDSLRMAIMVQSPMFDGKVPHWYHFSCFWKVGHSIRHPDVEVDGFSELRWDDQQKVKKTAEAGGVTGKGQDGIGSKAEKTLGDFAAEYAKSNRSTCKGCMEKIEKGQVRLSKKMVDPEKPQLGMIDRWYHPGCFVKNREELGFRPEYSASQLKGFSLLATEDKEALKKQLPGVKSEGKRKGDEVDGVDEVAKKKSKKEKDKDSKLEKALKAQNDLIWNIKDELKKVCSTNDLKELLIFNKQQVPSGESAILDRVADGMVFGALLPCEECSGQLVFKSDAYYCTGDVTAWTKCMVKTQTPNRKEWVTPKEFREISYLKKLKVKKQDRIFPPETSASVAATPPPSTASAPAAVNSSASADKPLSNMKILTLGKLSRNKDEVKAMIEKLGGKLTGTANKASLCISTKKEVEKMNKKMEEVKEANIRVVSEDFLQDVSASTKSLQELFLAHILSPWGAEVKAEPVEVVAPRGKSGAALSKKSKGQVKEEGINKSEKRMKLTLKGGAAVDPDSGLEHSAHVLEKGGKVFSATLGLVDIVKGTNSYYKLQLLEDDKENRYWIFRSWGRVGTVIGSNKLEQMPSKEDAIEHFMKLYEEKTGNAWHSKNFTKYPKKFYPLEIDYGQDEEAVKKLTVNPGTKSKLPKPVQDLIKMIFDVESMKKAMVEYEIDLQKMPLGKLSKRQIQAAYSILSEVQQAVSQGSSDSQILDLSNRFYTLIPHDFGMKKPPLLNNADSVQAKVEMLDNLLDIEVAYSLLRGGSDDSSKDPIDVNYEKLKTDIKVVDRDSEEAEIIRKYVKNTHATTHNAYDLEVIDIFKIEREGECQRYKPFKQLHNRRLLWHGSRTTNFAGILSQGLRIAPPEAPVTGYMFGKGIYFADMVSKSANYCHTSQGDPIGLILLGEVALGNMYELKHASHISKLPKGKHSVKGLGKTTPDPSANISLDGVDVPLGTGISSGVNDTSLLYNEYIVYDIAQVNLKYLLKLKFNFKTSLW

| Compound | IC50 [1] [nM] | IC50 [2] [nM] | IC50 ([3]; read-out: IC50) [nM] | IC50 ([3]; read-out: pIC50 (converted)) [nM] | IC50 [4] [nM] |
| --- | --- | --- | --- | --- | --- |
| O=C1CCN(c2ccccc2C(=O)NCCc2ccccc2)C(=O)N1 |  | 4600 |  |  |  |
| O=C1CCN(c2ccccc2C(=O)NCCc2ccc(Br)cc2)C(=O)N1 |  | 350 | 910 | 912 | > 50000 |
| COc1ccc2c(c1)C(CC(=O)NCCNC(=O)c1ccccc1N1CCC(=O)NC1=O)CC2=O (configuration not stated) | 41 | 290 | 7900 | 7940 |  |
| O=C1CCN(c2ccccc2C(=O)NCCc2nc(-c3ccccn3)no2)C(=O)N1 | 260 | 250 | 8100 | 8130 | 2200 |
| O=C1CCN(c2ccccc2C(=O)NCCc2ccc(Cl)cc2Cl)C(=O)N1 | 110 | 700 |  |  | > 50000 |

More lines, in order of falling IC50 [2], values ahead:

| IC50 [1] [nM] | IC50 [2] [nM] | IC50 ([3]; read-out: IC50) [nM] | IC50 ([3]; read-out: pIC50 (converted)) [nM] | IC50 [4] [nM] | Compound |
| --- | --- | --- | --- | --- | --- |
|  | 2500 |  |  |  | CN(Cc1ccc(-n2cccn2)cc1)C(=O)c1ccccc1N1CCC(=O)NC1=O |
|  | 570 | 2400 | 2400 | > 50000 | O=C1CCN(c2ccccc2C(=O)NCCc2ccc(Cl)cc2)C(=O)N1 |
| 28 | 370 | 470 | 468 | > 50000 | COc1ccc2c(c1)C(CC(=O)N[C@@H](CNC(=O)c1ccccc1N1CCC(=O)NC1=O)C(N)=O)CC2=O (some centres not stated) |
| 220 | 330 | 8300 | 8320 | > 50000 | O=C1CCN(c2ccccc2C(=O)NCc2ccc(-n3cccn3)cc2)C(=O)N1 |
| 200 | 290 | 330 | 331 | 34000 | COc1ccc2c(c1)C(CC(=O)N1CCN(C(=O)c3ccccc3N3CCC(=O)NC3=O)CC1)CC2=O (configuration not stated) |
